Assay results published in BigSolDB 2.1.

CC(C)(C#N)N=NC(C)(C)C#N
Conditions	solubility (mole fraction)
in acetone, 278.15 K	0.0518
in acetone, 283.45 K	0.062
in acetone, 288.75 K	0.0741
in acetone, 293.05 K	0.0881
in acetone, 297.85 K	0.106
in acetone, 302.95 K	0.127
in acetone, 307.95 K	0.145
in acetone, 312.75 K	0.176
in acetone, 318.05 K	0.209
in acetone, 322.75 K	0.236
in benzene, 279.25 K	0.0254
in benzene, 283.75 K	0.0311
in benzene, 290.05 K	0.0411
in benzene, 293.65 K	0.049
in benzene, 298.05 K	0.0603
in benzene, 303.25 K	0.077
in benzene, 307.95 K	0.0938
in benzene, 312.65 K	0.119
in benzene, 317.65 K	0.151
in benzene, 322.25 K	0.181
in ethanol, 278.55 K	0.00263
in ethanol, 284.35 K	0.00408
in ethanol, 288.95 K	0.00511
in ethanol, 293.15 K	0.00667
in ethanol, 297.85 K	0.00938
in ethanol, 302.95 K	0.0128
in ethanol, 307.65 K	0.0165
in ethanol, 312.55 K	0.0221
in ethanol, 317.65 K	0.0314
in ethanol, 322.55 K	0.0427
in ethyl acetate, 278.15 K	0.0349
in ethyl acetate, 282.85 K	0.0424
in ethyl acetate, 287.75 K	0.053
in ethyl acetate, 293.65 K	0.0669
in ethyl acetate, 298.35 K	0.0821
in ethyl acetate, 303.15 K	0.0959
in ethyl acetate, 307.85 K	0.119
in ethyl acetate, 312.95 K	0.144
in ethyl acetate, 317.95 K	0.175
in ethyl acetate, 322.95 K	0.206
in methanol, 268.15 K	0.0034
in methanol, 273.15 K	0.00441
in methanol, 278.15 K	0.00567
in methanol, 283.15 K	0.00738
in methanol, 288.15 K	0.00942
in methanol, 293.15 K	0.0124
in methanol, 298.15 K	0.0162
in methanol, 303.15 K	0.0212
in methanol, 308.15 K	0.0277
in methanol, 313.15 K	0.0364
in methanol, 318.15 K	0.0479
in methanol, 323.15 K	0.0637
